Experimental data from patent US20250345492A1, “AN ANTIBACTERIAL POLYPEPTIDE COMPOUND, A MEDICAL DEVICE, HYDROGEL AND USE THEREOF” (priority 2020, published 2025).
Converted amounts (≈) assume the structure as drawn. Square brackets hold non-standard residues; d marks the D form. Peptide text beside a SMILES is read from it. Dap = NC[C@H](N)C(=O)O

Legend:
[1] = test system: Bacillus subtilis (ATCC 23857); conditions: ATCC 23857
Excerpt: (§1) With respect to the determination of antibacterial activity and antifungal activity of the antibacterial polypeptide compounds, the bacterial strains employed included: E. coli (ATCC 25922), E. coli (ATCC 43837), Pseudomonas aeruginosa (ATCC 27853), Klebsiella pneumoniae (ATCC 700603), Cronobacter sakazakii (ATCC 29544), Staphylococcus aureus (ATCC 29213), Bacillus subtilis (ATCC 23857) and Staphylococcus epidermidis (ATCC 12228); and the fungal strains employed included Candida albicans (ATCC 14053), Candida glabrata (ATCC 2001), Candida parapsilosis (ATCC 22019), Candida tropicalis (ATCC 750) and Candida krusei (ATCC 6258), all of which were standard strains from American Type Culture Collection. In addition, drug-resistant strains S-1a, S-2a, S-3a, S-4a, E-1b, E-2b, E-3b, E-4b, E-5b, P-1c, P-2c, P-3c, P-4c, P-5c, and clinically isolated fungal strains Candida glabrata 2-1 and Candida albicans 14-1, 14-2 and 14-3 were employed, all which were clinically isolated.
(§2) Simply, a proper amount of the cryopreserved bacterium or fungus was added to fresh MH/SD medium, and cultured on a shaker overnight at 180 rpm at 37° C. The obtained cells were seeded again and cultured on a shaker for 4-5 hours to obtain cells in logarithmic phase. The resulting cells were added to a 96-well plate (1×10^5 CFU/ml, 100 μL/well), and then 100 μL of polypeptide with different concentrations (1-256 μM) twice the final concentrations was added to corresponding well according to the 2-fold serial dilution method. The fresh medium was used as a negative control, which was prepared in triplicate for each concentration. After dosing, the 96-well plate was placed in an incubator at constant 37° C. and humidity for 12 hours to observe the results. According to naked eye observations, the concentration of the compound in the first transparent well following the turbid wells was recorded as the MIC of the compound, namely, the MIC value of the compound to the bacterium or fungus.

[2] = test system: C. albicans ATCC14053; conditions: ATCC14053
Excerpt: as §1, §2

[3] = test system: C. glabrata ATCC22019; conditions: ATCC22019
Excerpt: as §1, §2

[4] = test system: C. krusei ATCC6258; conditions: ATCC6258
Excerpt: as §1, §2

[5] = test system: C. parapsilosis ATCC2001; conditions: ATCC2001
Excerpt: as §1, §2

[6] = test system: C. tropicalis ATCC750; conditions: ATCC750
Excerpt: as §1, §2

[7] = test system: Cronobacter sakazakii (ATCC 29544); conditions: ATCC 29544
Excerpt: as §1, §2

[8] = test system: E. coli (ATCC 25922); conditions: ATCC 25922
Excerpt: as §1, §2

[9] = test system: Pseudomonas aeruginosa (ATCC 27853); conditions: standard strain
Excerpt: as §1, §2

[10] = test system: Staphylococcus aureus (ATCC 29213); conditions: ATCC 29213
Excerpt: as §1, §2

[11] = test system: Staphylococcus epidermidis (ATCC 12228); conditions: ATCC 12228
Excerpt: as §1, §2

[12] = test system: E-1b, clinical isolated drug-resistant strain ESBL; conditions: strain E-1b (ESBL)
Excerpt: as §1, §2

[13] = test system: E-2b, clinical isolated drug-resistant strain ESBL; conditions: strain E-2b (ESBL)
Excerpt: as §1, §2

[14] = test system: E-3b, clinical isolated drug-resistant strain ESBL; conditions: strain E-3b (ESBL)
Excerpt: as §1, §2

[15] = test system: E-4b, clinical isolated drug-resistant strain ESBL; conditions: strain E-4b (ESBL)
Excerpt: as §1, §2

[16] = test system: E-5b, clinical isolated drug-resistant strain ESBL; conditions: strain E-5b (ESBL)
Excerpt: as §1, §2

[17] = test system: P-1c, clinical isolated drug-resistant strain PA; conditions: strain P-1c (PA)
Excerpt: as §1, §2

[18] = test system: P-2c, clinical isolated drug-resistant strain PA; conditions: strain P-2c (PA)
Excerpt: as §1, §2

[19] = test system: P-3c, clinical isolated drug-resistant strain PA; conditions: strain P-3c (PA)
Excerpt: as §1, §2

[20] = test system: P-4c, clinical isolated drug-resistant strain PA; conditions: strain P-4c (PA)
Excerpt: as §1, §2

[21] = test system: P-5c, clinical isolated drug-resistant strain PA; conditions: strain P-5c (PA)
Excerpt: as §1, §2

Row | Compound | MIC B. subtilis ATCC23857 [1] | MIC C. albicans ATCC14053 [2] | MIC C. glabrata ATCC22019 [3] | MIC C. krusei ATCC6258 [4] | MIC C. parapsilosis ATCC2001 [5] | MIC C. tropicalis ATCC750 [6] | MIC C. sakazakii ATCC29544 [7] | MIC C. coli ATCC25922 [8] | MIC P. aerugmosa ATCC27853 [9] | MIC S. aureus ATCC29213 [10] | MIC S. epidermidis ATCC12228 [11] | also measured
1 | CC(C)C[C@H](NC(=O)[C@H](CCCCN)NC(=O)[C@H](CC(C)C)NC(=O)[C@H](CCCCN)NC(=O)[C@H](CC(C)C)NC(=O)[C@H](CCN)NC(=O)[C@H](Cc1ccccc1)NC(=O)[C@@H]1CCCN1)C(N)=O [Compound 3, Pro-Phe-Dab-Leu-Lys-Leu-Lys-Leu-NH2] (HELM PEPTIDE1{P.F.[Dab].L.K.L.K.L.[am]}$$$$V2.0) | 16 µM (≈ 15.3 µg/mL) | 32 µM (≈ 30.6 µg/mL) | 32 µM (≈ 30.6 µg/mL) | 64 µM (≈ 61.3 µg/mL) | 16 µM (≈ 15.3 µg/mL) | 32 µM (≈ 30.6 µg/mL) | 32 µM (≈ 30.6 µg/mL) | 32 µM (≈ 30.6 µg/mL) | 32 µM (≈ 30.6 µg/mL) | 128 µM (≈ 123 µg/mL) | 16 µM (≈ 15.3 µg/mL) | 
2 | H-PFKLKLHL-NH2 [Compound 1] | 32 µM | 32 µM | 32 µM | 64 µM | 32 µM | 32 µM | 32 µM | 32 µM | 32 µM | 128 µM | 32 µM | 
3 | H-PWRLSLRL-NH2 [Compound 14] | 8 µM | 8 µM | 8 µM | 32 µM | 8 µM | 8 µM | 8 µM | 8 µM | 8 µM | 32 µM | 16 µM | 
4 | H-PWRLSLHL-NH2 [Compound 12] | 16 µM | 32 µM | 16 µM | 32 µM | 16 µM | 16 µM | 16 µM | 16 µM | 32 µM | 32 µM | 8 µM | 
5 | H-PFRLSLRL-NH2 [Compound 6] | 16 µM | 32 µM | 8 µM | 32 µM | 16 µM | 16 µM | 16 µM | 8 µM | 32 µM | 64 µM | 16 µM | 
6 | CC(C)C[C@H](NC(=O)[C@H](CN)NC(=O)[C@H](CC(C)C)NC(=O)[C@H](CN)NC(=O)[C@H](CC(C)C)NC(=O)[C@H](CN)NC(=O)[C@H](Cc1c[nH]c2ccccc12)NC(=O)[C@@H]1CCCN1)C(N)=O [Compound 11, Pro-Trp-Dap-Leu-Dap-Leu-Dap-Leu-NH2] (H-PW[Dap]L[Dap]L[Dap]L-NH2) | 16 µM (≈ 14.4 µg/mL) | 64 µM (≈ 57.5 µg/mL) | 16 µM (≈ 14.4 µg/mL) | 32 µM (≈ 28.7 µg/mL) | 16 µM (≈ 14.4 µg/mL) | 16 µM (≈ 14.4 µg/mL) | 16 µM (≈ 14.4 µg/mL) | 16 µM (≈ 14.4 µg/mL) | 64 µM (≈ 57.5 µg/mL) | 32 µM (≈ 28.7 µg/mL) | 16 µM (≈ 14.4 µg/mL) | 
7 | H-PFRLSLHL-NH2 [Compound 4] | 16 µM | 32 µM | 32 µM | 32 µM | 16 µM | 32 µM | 32 µM | 32 µM | 32 µM | 128 µM | 32 µM | 
8 | CC(C)C[C@H](NC(=O)[C@H](CCN)NC(=O)[C@H](CC(C)C)NC(=O)[C@H](CO)NC(=O)[C@H](CC(C)C)NC(=O)[C@H](CCN)NC(=O)[C@H](Cc1c[nH]c2ccccc12)NC(=O)[C@@H]1CCCN1)C(N)=O [Compound 10, Pro-Trp-Dab-Leu-Ser-Leu-Dab-Leu-NH2] (HELM PEPTIDE1{P.W.[Dab].L.S.L.[Dab].L.[am]}$$$$V2.0) | 16 µM (≈ 14.8 µg/mL) | 32 µM (≈ 29.7 µg/mL) | 16 µM (≈ 14.8 µg/mL) | 32 µM (≈ 29.7 µg/mL) | 16 µM (≈ 14.8 µg/mL) | 8 µM (≈ 7.42 µg/mL) | 8 µM (≈ 7.42 µg/mL) | 16 µM (≈ 14.8 µg/mL) | 32 µM (≈ 29.7 µg/mL) | 32 µM (≈ 29.7 µg/mL) | 16 µM (≈ 14.8 µg/mL) | 
9 | H-PFRLRLRL-NH2 [Compound 7] | 8 µM | 8 µM | 8 µM | 32 µM | 8 µM | 32 µM | 32 µM | 8 µM | 8 µM | 64 µM | 16 µM | 
10 | H-PFRLRLHL-NH2 [Compound 5] | 16 µM | 16 µM | 16 µM | 64 µM | 16 µM | 32 µM | 32 µM | 16 µM | 32 µM | 128 µM | 32 µM | 
11 | gentamicin [reference compound] |  |  |  |  |  |  |  |  |  |  |  | MIC [12]: 50 µM; MIC [13]: 50 µM; MIC [14]: 50 µM; MIC [15]: 50 µM; MIC [16]: 50 µM; MIC [17]: 50 µM; MIC [18]: 50 µM; MIC [19]: 25 µM; MIC [20]: 50 µM; MIC [21]: 50 µM
